Source: patent US9834542B2, “LXR modulators” (BRISTOL-MYERS SQUIBB COMPANY, priority 2013, dated 2017)

Target: T1, LXRβ (Homo sapiens, UniProt P55055)
T1 construct: Co-transfection expression plasmids, comprising full-length LXRα (pCMX-h LXRα[…] or LXRβ (pCMX-hLXRβ)); expressed in transfected cells; host or cells: CV-1 African Green Monkey Kidney Cells
T1 sequence (P55055 1-460): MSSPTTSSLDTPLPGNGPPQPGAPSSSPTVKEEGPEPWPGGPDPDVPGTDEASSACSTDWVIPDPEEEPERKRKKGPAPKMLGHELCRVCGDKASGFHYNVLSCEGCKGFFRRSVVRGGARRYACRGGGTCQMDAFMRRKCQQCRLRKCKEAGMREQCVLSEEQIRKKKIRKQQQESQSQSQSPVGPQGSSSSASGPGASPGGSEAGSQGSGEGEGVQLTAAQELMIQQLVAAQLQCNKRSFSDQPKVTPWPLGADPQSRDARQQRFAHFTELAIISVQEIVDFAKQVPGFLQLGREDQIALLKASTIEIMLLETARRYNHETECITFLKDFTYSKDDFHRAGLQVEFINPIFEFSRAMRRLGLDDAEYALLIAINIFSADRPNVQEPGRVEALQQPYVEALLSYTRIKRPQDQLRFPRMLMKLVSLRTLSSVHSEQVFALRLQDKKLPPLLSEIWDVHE
T1 sequence (P19793 1-462 partner): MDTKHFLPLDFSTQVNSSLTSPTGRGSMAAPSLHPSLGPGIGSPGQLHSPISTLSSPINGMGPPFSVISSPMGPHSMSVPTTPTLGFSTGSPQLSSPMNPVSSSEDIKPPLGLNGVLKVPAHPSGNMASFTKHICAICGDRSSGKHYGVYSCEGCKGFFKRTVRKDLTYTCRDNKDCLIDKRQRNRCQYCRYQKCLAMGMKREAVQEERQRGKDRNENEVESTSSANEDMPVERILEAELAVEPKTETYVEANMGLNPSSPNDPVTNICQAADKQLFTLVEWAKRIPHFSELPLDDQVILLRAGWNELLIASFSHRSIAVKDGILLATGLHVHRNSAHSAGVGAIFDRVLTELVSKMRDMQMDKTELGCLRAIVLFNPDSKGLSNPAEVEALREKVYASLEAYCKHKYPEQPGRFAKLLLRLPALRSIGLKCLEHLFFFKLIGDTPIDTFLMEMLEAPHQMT
Experiment: Co-transfection assay (LXRE luciferase reporter), LXRβ
Assay type: cell-based
Details: for EC50: CV-1 cells transfected with pCMX-hLXRβ and LXREx1-Tk-Luciferase, 20 hours incubation; for Emax: LXRβ co-transfection, relative to high control 1-(2,4-difluorobenzyl)-2-oxo-6-(4-phenoxyphenyl)-4-(trifluoromethyl)-1,2-dihydropyridine-3-carbonitrile, read-out: % Efficacy
Method in brief: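 Luciferase output from an LXRE-Tk reporter measured after 20 h, 37 °C compound exposure of transiently transfected CV-1 cells expressing human LXRβ with endogenous RXR. EC50 fitted from 11-point half-log dose responses (mean of ≥2 runs); % efficacy versus maximal response of the reference agonist.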

Row | Compound | EC50 | Emax
1 | Cc1nc(C(F)(F)F)cn1-c1ccc(-c2cc(F)c(CO)c(S(C)(=O)=O)c2)cc1-n1nncc1-c1ccc(Cl)c(Cl)c1 [Example 81, {3′-[5-(3,4-dichlorophenyl)-1H-1,2,3-triazol-1-yl]-3-fluoro-5-(methylsulfonyl)-4′-[2-methyl-4-(trifluoromethyl)-1H-imidazol-1-yl]biphenyl-4-yl}methanol] | 0.085 µM | 99%
2 | Cc1nc(C(F)(F)F)cn1-c1ccc(-c2cccc(S(C)(=O)=O)c2)cc1-c1ccnn1-c1ccc(OC(F)(F)F)cc1 [Example 289, 5-{3′-(methylsulfonyl)-4-[2-methyl-4-(trifluoromethyl)-1H-imidazol-1-yl]biphenyl-3-yl}-1-{4-[(trifluoromethyl)oxy]phenyl}-1H-pyrazole] | 0.122 µM | 75%
3 | CCC(F)(F)c1cn(-c2ccc(-c3cccc(S(=O)(=O)NC)c3)cc2-n2nncc2-c2ccc(OC(F)(F)F)cc2)c(C)n1 [Example 185, 4′-[4-(1,1-difluoropropyl)-2-methyl-1H-imidazol-1-yl]-N-methyl-3′-(5-{4-[(trifluoromethyl)oxy]phenyl}-1H-1,2,3-triazol-1-yl)biphenyl-3-sulfonamide] | 0.297 µM | 77%
4 | COCc1c(F)cc(-c2cc(F)c(-n3cc(C(F)(F)F)nc3C)c(-n3nncc3-c3ccc(Cl)cc3)c2)cc1S(C)(=O)=O [Example 207, 5-(4-chlorophenyl)-1-{3′,5-difluoro-4′-[(methyloxy)methyl]-5′-(methylsulfonyl)-4-[2-methyl-4-(trifluoromethyl)-1H-imidazol-1-yl]biphenyl-3-yl}-1H-1,2,3-triazole] | 0.176 µM | 76%
5 | Cc1nc(C(F)(F)F)cn1-c1ccc(-c2cc(F)c(CO)c(S(C)(=O)=O)c2)cc1-n1nncc1C(=O)c1cccc(C(F)(F)F)c1 [Example 136, (1-{3′-fluoro-4′-(hydroxymethyl)-5′-(methylsulfonyl)-4-[2-methyl-4-(trifluoromethyl)-1H-imidazol-1-yl]biphenyl-3-yl}-1H-1,2,3-triazol-5-yl)[3-(trifluoromethyl)phenyl]meth-anone] | 0.764 µM | 69%
6 | Cc1nc(C(F)(F)F)cn1-c1ccc(-c2cccc(S(C)(=O)=O)c2)cc1-c1ccnn1-c1ccc(Cl)cc1 [Example 286, 1-(4-chlorophenyl)-5-{3′-(methylsulfonyl)-4-[2-methyl-4-(trifluoromethyl)-1H-imidazol-1-yl]biphenyl-3-yl}-1H-pyrazole] | 0.152 µM | 84%
7 | CCS(=O)(=O)c1cccc(-c2ccc(-n3cc(C(F)(F)F)nc3C)c(-n3nncc3C(C)c3ccc(C)cc3)c2)c1 (stereo not shown) [Example 107, 1-{3′-(ethylsulfonyl)-4-[2-methyl-4-(trifluoromethyl)-1H-imidazol-1-yl]biphenyl-3-yl}-5-[1-(4-methylphenyl)ethyl]-1H-1,2,3-triazole] | 0.201 µM | 83%
8 | Cc1nc(C(F)(F)F)cn1-c1ccc(-c2cccc(S(C)(=O)=O)c2)cc1-n1nncc1-c1cccc(OC(F)F)c1 [Example 37, 5-{3-[(difluoromethyl)oxy]phenyl}-1-{3′-(methylsulfonyl)-4-[2-methyl-4-(trifluoromethyl)-1H-imidazol-1-yl]biphenyl-3-yl}-1H-1,2,3-triazole] | 0.758 µM | 96%
9 | Cc1nc(C(F)(F)F)cn1-c1ccc(-c2cc(F)c(CO)c(S(C)(=O)=O)c2)c(Cl)c1-n1nncc1-c1ccc(Cl)cc1Cl [Example 103, {2′-chloro-3′-[5-(2,4-dichlorophenyl)-1H-1,2,3-triazol-1-yl]-3-fluoro-5-(methylsulfonyl)-4′-[2-methyl-4-(trifluoromethyl)-1H-imidazol-1-yl]biphenyl-4-yl}methanol] | 1.24 µM | 52%
10 | Cc1nc(C(F)(F)F)cn1-c1ccc(-c2cc(F)c(CO)c(S(C)(=O)=O)c2)cc1-c1ccnn1-c1ccc(OC(F)(F)F)cc1 [Example 292, [3-fluoro-5-(methylsulfonyl)-4′-[2-methyl-4-(trifluoromethyl)-1H-imidazol-1-yl]-3′-(1-{4-[(trifluoromethyl)oxy]phenyl}-1H-pyrazol-5-yl)biphenyl-4-yl]methanol] | 0.065 µM | 70%

Results, then the molecule that gave them:

Row | EC50 | Emax | Compound
11 | 0.058 µM | 76% | Cc1nc(-c2cc(-c3cc(F)c(CO)c(S(C)(=O)=O)c3)ccc2-n2cc(C(F)(F)F)nc2C)c(-c2cc(F)c(OC(F)F)c(F)c2)o1 [Example 457, (3′-(5-(4-(difluoromethoxy)-3,5-difluorophenyl)-2-methyloxazol-4-yl)-3-fluoro-4′-(2-methyl-4-(trifluoromethyl)-1H-imidazol-1-yl)-5-(methylsulfonyl)biphenyl-4-yl)methanol]
12 | 0.465 µM | 77% | Cc1nc(-c2cc(-c3cccc(S(C)(=O)=O)c3)ccc2-n2cc(C(F)(F)F)nc2C)c(-c2ccc3c(c2)C(O)C(F)(F)O3)o1 (stereo not shown) [Example 368, 2,2-difluoro-5-(2-methyl-4-(4-(2-methyl-4-(trifluoromethyl)-1H-imidazol-1-yl)-3′-(methylsulfonyl)biphenyl-3-yl)oxazol-5-yl)-2,3-dihydrobenzofuran-3-ol]
13 | 0.118 µM | 92% | Cc1nc(-c2cc(-c3cc(F)c(CO)c(S(C)(=O)=O)c3)ccc2-n2cc(C(F)(F)F)nc2C)c(-c2ccc(OCC(F)F)c(F)c2)o1 [Example 426, (3′-(5-(4-(2,2-difluoroethoxy)-3-fluorophenyl)-2-methyloxazol-4-yl)-3-fluoro-4′-(2-methyl-4-(trifluoromethyl)-1H-imidazol-1-yl)-5-(methylsulfonyl)biphenyl-4-yl)methanol]
14 | 0.119 µM | 53% | Cc1nc(-c2cc(-c3cccc(S(C)(=O)=O)c3)ccc2-n2cc(C(F)(F)F)nc2C)c(-c2ccc3c(c2)CCC3)o1 [Example 474, 5-(2,3-dihydro-1H-inden-5-yl)-2-methyl-4-(4-(2-methyl-4-(trifluoromethyl)-1H-imidazol-1-yl)-3′-(methylsulfonyl)biphenyl-3-yl)oxazole]
15 | 0.091 µM | 89% | Cc1nc(-c2ccc(Cl)cc2)c(-c2cc(-c3cccc(S(C)(=O)=O)c3)ccc2-n2cc(C(F)(F)F)nc2C)o1 [Example 605, 4-(4-chlorophenyl)-2-methyl-5-(4-(2-methyl-4-(trifluoromethyl)-1H-imidazol-1-yl)-3′-(methylsulfonyl)-[1,1′-biphenyl]-3-yl)oxazole]
16 | 0.425 µM | 77% | Cc1nc(C(F)(F)F)cn1-c1ccc(-c2cccc(S(C)(=O)=O)c2)cc1-c1ncoc1-c1ccc(Cl)cc1 [Example 354, 5-(4-chlorophenyl)-4-{3′-(methylsulfonyl)-4-[2-methyl-4-(trifluoromethyl)-1H-imidazol-1-yl]biphenyl-3-yl}-1,3-oxazole]
17 | 0.034 µM | 77% | Cc1nc(C(F)(F)F)cn1-c1ccc(-c2cccc(S(C)(=O)=O)c2)cc1-c1nc(CC(C)C)oc1-c1ccc(OC(F)(F)F)cc1 [Example 562, 2-isobutyl-4-(4-(2-methyl-4-(trifluoromethyl)-1H-imidazol-1-yl)-3′-(methylsulfonyl)-[1,1′-biphenyl]-3-yl)-5-(4-(trifluoromethoxy)phenyl)oxazole]
18 | 0.218 µM | 76% | Cc1nc(-c2cc(-c3cc(F)c(CO)c(S(C)(=O)=O)c3)ccc2-n2cc(C(F)(F)F)nc2C)c(-c2cncc(Cl)c2)o1 [Example 421, (3′-(5-(5-chloropyridin-3-yl)-2-methyloxazol-4-yl)-3-fluoro-4′-(2-methyl-4-(trifluoromethyl)-1H-imidazol-1-yl)-5-(methylsulfonyl)biphenyl-4-yl)methanol]
19 | 0.207 µM | 51% | Cc1nc(-c2cc(-c3cc(F)c(CO)c(S(C)(=O)=O)c3)ccc2-n2cc(C(F)(F)F)nc2C)c(-c2cccnc2C2CC2)o1 [Example 391]
20 | 0.012 µM | 72% | Cc1nc(-c2cc(-c3cccc(S(C)(=O)=O)c3)ccc2-n2cc(C(F)(F)F)nc2C)c(-c2ccc(OC(F)F)nc2)o1 [Example 384, 5-(6-(difluoromethoxy)pyridin-3-yl)-2-methyl-4-(4-(2-methyl-4-(trifluoromethyl)-1H-imidazol-1-yl)-3′-(methylsulfonyl)biphenyl-3-yl)oxazole]
